Experimental data reported in ChEMBL document CHEMBL4138296, “Nonacidic Chemotype Possessing N-Acylated Piperidine Moiety as Potent Farnesoid X Receptor (FXR) Antagonists” (ACS Med Chem Lett, 2018).
The source made the active and inactive calls. No cut-off for these calls is given here.

Key:
[1] = biological target: T1, Oxysterols receptor LXR-beta (Homo sapiens) (UniProt P55055); assay: Agonist activity at LXRbeta (unknown origin) at 1 uM by luciferase reporter gene assay
T1 sequence (whole entry): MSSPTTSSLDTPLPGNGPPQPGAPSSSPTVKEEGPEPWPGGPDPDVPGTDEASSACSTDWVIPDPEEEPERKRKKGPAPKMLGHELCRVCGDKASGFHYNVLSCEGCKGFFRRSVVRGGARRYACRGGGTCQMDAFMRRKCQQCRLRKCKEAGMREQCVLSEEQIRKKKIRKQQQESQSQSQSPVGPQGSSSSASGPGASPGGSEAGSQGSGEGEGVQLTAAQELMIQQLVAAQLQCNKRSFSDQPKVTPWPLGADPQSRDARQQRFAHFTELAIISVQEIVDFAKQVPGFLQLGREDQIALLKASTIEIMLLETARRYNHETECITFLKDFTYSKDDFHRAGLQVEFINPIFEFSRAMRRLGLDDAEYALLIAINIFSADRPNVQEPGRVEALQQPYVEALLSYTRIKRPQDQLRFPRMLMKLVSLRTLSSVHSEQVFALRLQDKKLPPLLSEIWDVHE

Bile acid receptor = biological target: T2, Bile acid receptor (Homo sapiens, UniProt Q96RI1); assay: Antagonist activity at human FXR expressed in Hep3B cells assessed as inhibition of CDCA-induced FXR response element driven luciferase activity after 24 hrs; assay type: cell-based
T2 sequence (Q96RI1 whole entry): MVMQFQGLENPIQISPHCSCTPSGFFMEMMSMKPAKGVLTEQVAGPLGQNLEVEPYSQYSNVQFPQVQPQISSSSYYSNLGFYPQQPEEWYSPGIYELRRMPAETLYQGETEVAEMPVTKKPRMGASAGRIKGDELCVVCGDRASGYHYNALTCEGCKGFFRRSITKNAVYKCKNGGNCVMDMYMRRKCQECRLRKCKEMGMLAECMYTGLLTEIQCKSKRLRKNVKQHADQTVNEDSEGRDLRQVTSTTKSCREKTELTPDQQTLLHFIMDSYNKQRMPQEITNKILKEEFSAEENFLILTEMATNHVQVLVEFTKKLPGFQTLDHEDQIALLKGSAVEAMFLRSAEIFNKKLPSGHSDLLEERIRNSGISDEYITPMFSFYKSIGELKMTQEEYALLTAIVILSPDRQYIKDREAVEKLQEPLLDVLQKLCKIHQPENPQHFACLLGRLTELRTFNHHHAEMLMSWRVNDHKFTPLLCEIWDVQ

3T3-L1 = assay: Antiadipogenic activity in mouse 3T3L1 cells assessed as inhibition of CDCA-induced intracellular lipid droplets after 6 days by Oil Red O staining based assay; assay type: functional, cell-based
[2] = biological target: T3, Retinoic acid receptor RXR-alpha (Homo sapiens) (UniProt P19793); assay: Agonist activity at human RXRalpha expressed in HEK293T cells at 1 uM by luciferase reporter gene assay; assay type: cell-based
T3 sequence (whole entry): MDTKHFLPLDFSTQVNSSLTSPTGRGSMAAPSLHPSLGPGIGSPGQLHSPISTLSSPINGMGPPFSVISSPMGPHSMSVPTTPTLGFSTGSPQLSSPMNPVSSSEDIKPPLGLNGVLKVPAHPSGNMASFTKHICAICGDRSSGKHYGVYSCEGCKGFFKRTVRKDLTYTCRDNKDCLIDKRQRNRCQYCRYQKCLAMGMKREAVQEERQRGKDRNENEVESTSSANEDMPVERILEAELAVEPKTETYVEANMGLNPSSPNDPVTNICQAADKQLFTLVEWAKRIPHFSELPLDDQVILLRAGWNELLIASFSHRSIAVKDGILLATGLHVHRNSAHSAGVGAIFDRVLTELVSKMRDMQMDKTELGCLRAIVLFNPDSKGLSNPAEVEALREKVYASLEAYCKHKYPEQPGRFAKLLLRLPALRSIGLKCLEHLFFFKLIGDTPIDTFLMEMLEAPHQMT

[3] = biological target: T4, Peroxisome proliferator-activated receptor gamma (Homo sapiens) (UniProt P37231); assay: Antagonist activity at PPARgamma (unknown origin) assessed as inhibition of GW1929-induced response at 1 uM by luciferase reporter gene assay
T4 sequence (whole entry): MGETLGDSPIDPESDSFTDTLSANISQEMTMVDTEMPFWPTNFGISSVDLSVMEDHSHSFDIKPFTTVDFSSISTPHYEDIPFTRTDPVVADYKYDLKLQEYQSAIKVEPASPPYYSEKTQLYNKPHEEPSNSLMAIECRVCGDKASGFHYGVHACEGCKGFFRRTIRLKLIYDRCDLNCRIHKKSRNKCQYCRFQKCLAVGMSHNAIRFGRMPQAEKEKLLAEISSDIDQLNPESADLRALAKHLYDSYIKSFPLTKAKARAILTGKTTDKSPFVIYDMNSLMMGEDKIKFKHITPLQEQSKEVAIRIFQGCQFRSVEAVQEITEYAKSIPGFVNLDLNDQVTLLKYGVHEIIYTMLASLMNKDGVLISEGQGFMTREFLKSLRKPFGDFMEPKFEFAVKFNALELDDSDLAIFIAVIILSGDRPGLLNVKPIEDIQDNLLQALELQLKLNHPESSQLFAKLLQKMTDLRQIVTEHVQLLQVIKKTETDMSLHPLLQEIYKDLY

[4] = biological target: T5, Vitamin D3 receptor (Homo sapiens) (UniProt P11473); assay: Antagonist activity at human VDR expressed in HEK293T cells assessed as inhibition of 1,25(OH)2VD3-induced response at 1 uM after 24 hrs by luciferase reporter gene assay; assay type: cell-based
T5 sequence (whole entry): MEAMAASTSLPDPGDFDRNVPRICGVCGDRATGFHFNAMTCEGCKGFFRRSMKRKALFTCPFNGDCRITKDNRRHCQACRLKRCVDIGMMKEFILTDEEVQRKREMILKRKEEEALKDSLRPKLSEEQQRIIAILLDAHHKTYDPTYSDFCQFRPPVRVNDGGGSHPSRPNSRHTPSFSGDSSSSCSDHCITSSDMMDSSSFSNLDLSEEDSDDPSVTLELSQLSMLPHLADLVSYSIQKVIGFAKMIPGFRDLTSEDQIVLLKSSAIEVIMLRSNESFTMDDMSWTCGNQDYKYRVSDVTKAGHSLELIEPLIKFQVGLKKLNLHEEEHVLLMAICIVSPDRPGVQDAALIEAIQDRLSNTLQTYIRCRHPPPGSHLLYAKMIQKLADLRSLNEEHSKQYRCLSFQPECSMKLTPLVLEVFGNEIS

[5] = biological target: T5, Vitamin D3 receptor (Homo sapiens); assay: Agonist activity at human VDR expressed in HEK293T cells at 1 uM by luciferase reporter gene assay; assay type: cell-based
[6] = biological target: T3, Retinoic acid receptor RXR-alpha (Homo sapiens); assay: Antagonist activity at human RXRalpha expressed in HEK293T cells assessed as inhibition of 9-cis-retinoic acid-induced response at 1 uM after 24 hrs by luciferase reporter gene assay; assay type: cell-based

For `Cc1ccc2nc([C@H](CC3CCN(C(=O)C(C)C)CC3)N3C(=O)CN(c4ccc(Oc5ccccc5)cc4)C3=O)n(C)c2c1`, the Activity [1] was “inactive”, the IC50 (Bile acid receptor) was less than 1 pM and the inhibition (3T3-L1) was “Dose-dependent effect”. For the same molecule, the Activity [2] was “inactive”, the inhibition [3] was “inactive” and the inhibition [4] was “inactive”. The Activity [5] was “inactive” and the inhibition [6] was “inactive”.
